Experimental data as given in ChEMBL document CHEMBL4359850, “Synthesis, in vivo and in silico anticonvulsant activity studies of new derivatives of 2-(2,4-dioxo-1,4-dihydroquinazolin-3(2H)-yl)acetamide” (Eur J Med Chem, 2019).

What was measured:
Mus musculus [1] = test: Anticonvulsive activity in pentylenetetrazole-induced seizure albino mouse model assessed as latecy time at 100 mg/kg, ig administered 30 mins prior to pentylenetetrazole challenge and mesured for 60 mins (reference value: 5.79 +/- 0.58 min); assay type: functional
Mus musculus [2] = test: Anticonvulsive activity in pentylenetetrazole-induced seizure albino mouse model assessed as number of clonic and tonic convulsion at 100 mg/kg, ig administered 30 mins prior to pentylenetetrazole challenge and mesured per animal for 60 mins (reference value: 3.58 +/- 0.42); assay type: functional
Mus musculus [3] = test: Anticonvulsive activity in pentylenetetrazole-induced seizure albino mouse model assessed as proportion of animals with clonic convulsion at 100 mg/kg, ig administered 30 mins prior to pentylenetetrazole challenge and mesured for 60 mins (reference value: 100 %); assay type: functional
Mus musculus [4] = test: Anticonvulsive activity in pentylenetetrazole-induced seizure albino mouse model assessed as proportion of animals with tonic convulsion at 100 mg/kg, ig administered 30 mins prior to pentylenetetrazole challenge and mesured for 60 mins (reference value: 100%); assay type: functional
Mus musculus [5] = test: Anticonvulsive activity in albino mouse assessed as protection against pentylenetetrazole-induced seizure by measuring severity of convulsion at 100 mg/kg, ig administered 30 mins prior to pentylenetetrazole challenge and mesured for 60 mins (reference value: 5.83 +/- 0.17); assay type: functional
Mus musculus [6] = test: Anticonvulsive activity in pentylenetetrazole-induced seizure albino mouse model assessed as duration time of convulsion period at 100 mg/kg, ig administered 30 mins prior to pentylenetetrazole challenge and mesured for 60 mins (reference value: 12 +/- 1.34 min); assay type: functional
Mus musculus [7] = test: Anticonvulsive activity in pentylenetetrazole-induced seizure albino mouse model assessed as lifetime of animal to death at 100 mg/kg, ig administered 30 mins prior to pentylenetetrazole challenge and mesured for 60 mins (reference value: 17.45 +/- 1.85 min); assay type: functional
[8] = Toxicity in albino mouse assessed as motor coordination impairment by measuring animal fall-off from rod before 1 min at 100 mg/kg, ig administered 30 mins prior to test by rotarod test (reference value: 17%); assay type: organism-based; details: in vivo, po
[9] = Toxicity in albino mouse assessed as motor coordination impairment by measuring animal fall-off from rod before 2 mins at 100 mg/kg, ig administered 30 mins prior to test by rotarod test (reference value: 33%); assay type: organism-based; details: in vivo, po
[10] = Toxicity in albino mouse assessed as motor coordination impairment by measuring animal fall-off from rod before 3 mins at 100 mg/kg, ig administered 30 mins prior to test by rotarod test (reference value: 33%); assay type: organism-based; details: in vivo, po, 0.05 h
[11] = Toxicity in albino mouse assessed as motor coordination impairment by measuring animal fall-off from rod before 5 mins at 100 mg/kg, ig administered 30 mins prior to test by rotarod test (reference value: 50%); assay type: organism-based; details: in vivo, po
Mus musculus [12] = test: Anticonvulsive activity in pentylenetetrazole-induced seizure albino mouse model assessed as decrease in time of death at 100 mg/kg, ig administered 30 mins prior to pentylenetetrazole challenge and mesured for 60 mins relative to control; assay type: functional
Mus musculus [13] = test: Anticonvulsive activity in pentylenetetrazole-induced seizure albino mouse model assessed as lethality at 100 mg/kg, ig administered 30 mins prior to pentylenetetrazole challenge and mesured for 60 mins (reference value: 91.7%); assay type: functional
[14] = Acute toxicity in albino mouse assessed as decrease in motor activity at 3000 to 5000 mg/kg, ig measured after 30 mins to 1 hr; assay type: organism-based; details: in vivo, po
[15] = Acute toxicity in ig dosed albino mouse measured for 14 days; assay type: organism-based; details: in vivo, po
[16] = Acute toxicity in albino mouse assessed as death at 1000 to 5000 mg/kg, ig measured for 14 days; assay type: organism-based; details: in vivo, po, 336 h
[17] = Acute toxicity in albino mouse assessed as lateral position at 1000 to 5000 mg/kg, ig measured for 14 days; assay type: organism-based; details: in vivo, po, 336 h
[18] = Acute toxicity in albino mouse assessed as blepharoptosis at 1000 to 5000 mg/kg, ig measured for 14 days; assay type: organism-based; details: in vivo, po, 336 h
[19] = Acute toxicity in albino mouse assessed as hypersalivation at 1000 to 5000 mg/kg, ig measured for 14 days; assay type: organism-based; details: in vivo, po, 336 h
[20] = Acute toxicity in albino mouse assessed as diarrhoea at 1000 to 5000 mg/kg, ig measured for 14 days; assay type: organism-based; details: in vivo, po, 336 h
[21] = Acute toxicity in albino mouse assessed as effect on muscle movement at 1000 to 5000 mg/kg, ig measured for 14 days; assay type: organism-based; details: in vivo, po, 336 h
[22] = Acute toxicity in albino mouse assessed as effect on skeletal muscle tone at 1000 to 5000 mg/kg, ig measured for 14 days; assay type: organism-based; details: in vivo, po, 336 h
Mus musculus [23] = test: Anticonvulsive activity in pentylenetetrazole-induced seizure albino mouse model assessed as lengthened latecy of convulsion at 100 mg/kg, ig administered 30 mins prior to pentylenetetrazole challenge and mesured for 60 mins relative to control; assay type: functional
Mus musculus [24] = test: Anticonvulsive activity in pentylenetetrazole-induced seizure albino mouse model assessed as decrease in severity of convulsion at 100 mg/kg, ig administered 30 mins prior to pentylenetetrazole challenge and mesured for 60 mins relative to control; assay type: functional
Mus musculus [25] = test: Anticonvulsive activity in pentylenetetrazole-induced seizure albino mouse model assessed as decrease in duration of convulsive period at 100 mg/kg, ig administered 30 mins prior to pentylenetetrazole challenge and mesured for 60 mins relative to control; assay type: functional
Mus musculus [26] = test: Anticonvulsive activity in pentylenetetrazole-induced seizure albino mouse model assessed as latency time at 300 mg/kg, ig administered 30 mins prior to pentylenetetrazole challenge and mesured for 60 mins (reference value: 5.79 +/- 0.58 min); assay type: functional
Mus musculus [27] = test: Anticonvulsive activity in pentylenetetrazole-induced seizure albino mouse model assessed as proportion of animals with clonic convulsion at 300 mg/kg, ig administered 30 mins prior to pentylenetetrazole challenge and mesured for 60 mins (reference value: 100 %); assay type: functional
Mus musculus [28] = test: Anticonvulsive activity in pentylenetetrazole-induced seizure albino mouse model assessed as proportion of animals with tonic convulsion at 300 mg/kg, ig administered 30 mins prior to pentylenetetrazole challenge and mesured for 60 mins (reference value: 100%); assay type: functional
Mus musculus [29] = test: Anticonvulsive activity in albino mouse assessed as protection against pentylenetetrazole-induced seizure by measuring severity of convulsion at 300 mg/kg, ig administered 30 mins prior to pentylenetetrazole challenge and mesured for 60 mins (reference value: 5.83 +/- 0.17); assay type: functional
Mus musculus [30] = test: Anticonvulsive activity in pentylenetetrazole-induced seizure albino mouse model assessed as duration time of convulsion period at 300 mg/kg, ig administered 30 mins prior to pentylenetetrazole challenge and mesured for 60 mins (reference value: 12 +/- 1.34 min); assay type: functional
Mus musculus [31] = test: Anticonvulsive activity in pentylenetetrazole-induced seizure albino mouse model assessed as lifetime of animal to death at 300 mg/kg, ig administered 30 mins prior to pentylenetetrazole challenge and mesured for 60 mins (reference value: 17.45 +/- 1.85 min); assay type: functional
Mus musculus [32] = test: Anticonvulsive activity in pentylenetetrazole-induced seizure albino mouse model assessed as lethality at 300 mg/kg, ig administered 30 mins prior to pentylenetetrazole challenge and mesured for 60 mins (reference value: 91.7%); assay type: functional
[33] = Toxicity in albino mouse assessed as motor coordination impairment by measuring animal fall-off from rod before 1 min at 300 mg/kg, ig administered 30 mins prior to test by rotarod test (reference value: 17%); assay type: organism-based; details: in vivo, po
[34] = Toxicity in albino mouse assessed as motor coordination impairment by measuring animal fall-off from rod before 2 mins at 300 mg/kg, ig administered 30 mins prior to test by rotarod test (reference value: 33%); assay type: organism-based; details: in vivo, po
[35] = Toxicity in albino mouse assessed as motor coordination impairment by measuring animal fall-off from rod before 3 mins at 300 mg/kg, ig administered 30 mins prior to test by rotarod test (reference value: 33%); assay type: organism-based; details: in vivo, po, 0.05 h
[36] = Toxicity in albino mouse assessed as motor coordination impairment by measuring animal fall-off from rod before 5 mins at 300 mg/kg, ig administered 30 mins prior to test by rotarod test (reference value: 50%); assay type: organism-based; details: in vivo, po
Mus musculus [37] = test: Anticonvulsive activity in pentylenetetrazole-induced seizure albino mouse model assessed as number of clonic and tonic convulsion at 300 mg/kg, ig administered 30 mins prior to pentylenetetrazole challenge and mesured per animal for 60 mins (reference value: 3.58 +/- 0.42); assay type: functional

Structure (SMILES)	Time (Mus musculus [1])	Activity (Mus musculus [2])	Activity (Mus musculus [3])	Activity (Mus musculus [4])	Activity (Mus musculus [5])	Time (Mus musculus [6])	Time (Mus musculus [7])	Activity [8]	Activity [9]	Activity [10]	Activity [11]	Activity (Mus musculus [13])	also measured
O=C(Cn1c(=O)[nH]c2ccccc2c1=O)NCc1ccc(Cl)cc1	4.82 min	2	100%	100%	6	4.54 min	9.36 min	50%	67%	67%	83%	–	fold change (FC) (Mus musculus [12]): 1.9
O=C(Cn1c(=O)[nH]c2ccccc2c1=O)NC1CCCCC1	3.8 min	3.2	100%	100%	5.6	13.11 min	11.53 min	17%	33%	50%	50%	80%	–
C=CCNC(=O)Cn1c(=O)[nH]c2ccccc2c1=O	6.6 min	2.2	100%	80%	5	9.8 min	16.95 min	33%	50%	50%	67%	60%	–
O=C(Cn1c(=O)[nH]c2ccccc2c1=O)Nc1ccccc1	10.57 min	1.22	100%	55.5%	4.22	1.24 min	7.14 min	17%	33%	50%	67%	33.3%	–
CCCNC(=O)Cn1c(=O)[nH]c2ccccc2c1=O	7.5 min	1.4	100%	100%	5	2.2 min	6.89 min	33%	50%	50%	50%	40%	–
O=C(Cn1c(=O)[nH]c2ccccc2c1=O)NCCc1ccccc1	11.43 min	1.8	100%	100%	5.6	9.98 min	17.79 min	33%	50%	50%	67%	80%	–
O=C(Cn1c(=O)[nH]c2ccccc2c1=O)NCc1ccc(Cl)cc1Cl	20.38 min	1	80%	40%	2.8	0.45 min	–	17%	50%	50%	67%	0%	Activity [14]: Toxic; LD50 at 336 h [15]: > 5000 mg/kg; Activity [16]: Non-Toxic; Activity [17]: Non-Toxic; Activity [18]: Non-Toxic; Activity [19]: Non-Toxic; Activity [20]: Non-Toxic; Activity [21]: Non-Toxic; Activity [22]: Non-Toxic; fold change (FC) (Mus musculus [23]): 3.5; fold change (FC) (Mus musculus [24]): 2.1; fold change (FC) (Mus musculus [25]): 26.7
O=C(Cn1c(=O)[nH]c2ccccc2c1=O)NCCCc1ccccc1	15.51 min	1.2	80%	80%	4	3.05 min	12.16 min	17%	33%	50%	50%	40%	–
O=C(Cn1c(=O)[nH]c2ccccc2c1=O)NCc1ccccc1	4.96 min	3	100%	100%	5.6	14.05 min	17.5 min	17%	33%	50%	50%	80%	–
CCCC(CCC)C(=O)[O-].[Na+] [VALPROATE SODIUM]	–	–	–	–	–	–	–	–	–	–	–	–	Time (Mus musculus [26]): 26.65 min; Activity (Mus musculus [27]): 66.7%; Activity (Mus musculus [28]): 50%; Activity (Mus musculus [29]): 2.83; Time (Mus musculus [30]): 7.64 min; Time (Mus musculus [31]): 20.9 min; Activity (Mus musculus [32]): 16.7%; Activity [33]: 50%; Activity [34]: 67%; Activity [35]: 83%; Activity [36]: 100%; Activity (Mus musculus [37]): 2
COc1ccccc1CNC(=O)Cn1c(=O)[nH]c2ccccc2c1=O	15.14 min	2.4	80%	80%	4.4	7.25 min	12.45 min	50%	67%	67%	83%	60%	–
